For orientation: solubility means how much of the substance goes into solution per volume. What is called Solubility is how much of the substance goes into solution per volume.

Converted amounts (≈) assume the structure as drawn.

What all share (type): physicochemical
Series [1] in a line: Relative permittivity of solvent (impedance meter method, 1 kHz, 22° C.). The following applies: frequency 1 kHz. The text has this: In the case where the solvent is used as a mixture, when the interaction between the solvents is small as in the invention, the relative permittivity of the mixed solvent can be approximated by multiplying relative permittivity of each solvent constituting the mixed solvent by each volume fraction and summing respective products. Moreover, when the interaction between the solvents is similarly small, solubility of the mixed solvent in water can be approximated by a value obtained by multiplying solubility of each solvent constituting the mixed solvent in water by each molar fraction and summing respective products.
Thereafter, the equivalent parallel capacity was measured while applying a test signal voltage of 0.1 V at a frequency of 1 kHz at 22° C. The relative permittivity was determined through the calculation according to the following equation to evaluate the solvent or ink. Relative permittivity=(equivalent parallel capacity)×(electrode spacing)/(electrode area)/(permittivity in vacuum (ε0)) <Method for Measuring Solubility of Solvent in Water>

The nature of series [2]: Solubility of solvent in water at 25° C. The settings on record: pure water, thermodynamic from solid, single solvent. Here is the method:
Pure water (30 g) and a solvent (8 g) were introduced into 110 ml of a vial, which was shaken 200 times/minute for 4 hours in a constant-temperature tank at 25° C. The mixture after shaking was centrifuged (6000×g, for 5 minutes), the aqueous layer was sampled, and the concentration of the solvent dissolved was quantitatively determined by gas chromatography. Since Isopar was not a single compound but a mixture, the quantitative determination was performed as TOC (total organic carbon), which was converted into solubility according to the following equation, the average molecular weight being shown as Mw. Solubility [mg/L]=TOC [mg/L]×(14Mw/{12(Mw−2)}
In the case of a mixed solvent in which two or more kinds of solvents were mixed, the solubility in water was determined by multiplying the solubility of each solvent in water by each molar fraction and summing up the resulting products.
In the case where the solvent species used is unclear, the solubility in water can be measured by the above method through identification of the solvent species by mass spectroscopy or the like.

A short description of series [3]: Absorption-maximum wavelength λmax, molar extinction coefficient ε and solution colour in each solvent. Here is the method: Each of the compounds 1 to 15 and the comparative example compounds 1 and 2 (1 mg each) was dissolved in each solvent (100 ml) and measurement of absorption spectra was performed on Hitachi spectrophotometer U-4100 using a quartz cell having an optical path length for measurement of 10 mm. From the resulting spectra, absorption-maximum wavelength λmax (nm) and molar extinction coefficient ε ([…]) were determined.

Series [4] can be described thus: Solubility C (saturated concentration at 5° C.) of compound in low-polarity solvent and product εC. The settings on record: for ε · C: C at 5° C.; for Solubility: at 5° C. Here is the method: The solubility C of each compound in each solvent was measured as follows.
Each compound was added to each solvent until a dissolution residue came to remain, and the mixture was subjected to an ultrasonic treatment for 30 minutes at 30° C. After the mixture was allowed to stand at 5° C. for 24 hours, centrifugal filtration was performed through a filter of 0.1 μm using a microcentrifuge (centrifugal force 5200×g). The resulting saturated solution was diluted to an appropriate concentration, and measurement of absorption spectra was performed on Hitachi spectrophotometer U-4100 using a quartz cell having an optical path length for measurement of 10 mm. The concentration of each compound was determined from a relationship between the absorbance at the absorption-maximum wavelength λmax (nm) and the molar extinction coefficient ε (L·mol^−1·cm^−1) previously measured, and the solubility C (mol·L^−1) was calculated. Moreover, the value of the product of the molar extinction coefficient ε (L·mol^−1·cm^−1) and the solubility C (mol·L^−1), εC, was determined.
Sudan Black B (manufactured by Tokyo Chemical Industry Co., Ltd.) that is a commercially available oil-soluble black dye was added to n-decane (relative permittivity 2.0, solubility in water 1 mg/L or less) until a dissolution residue came to remain, and the mixture was subjected to an ultrasonic treatment for 30 minutes at 30° C. After the mixture was allowed to stand at 5° C. for 24 hours, centrifugal filtration was performed through a filter of 0.1 μm using a microcentrifuge (centrifugal force 5200×g). The resulting saturated n-decane solution was diluted to an appropriate concentration.

[5] abbreviates: mixed solvent of n-decane/Isopar L (mixing ratio 1/1).

In turn, n-decaline gave a relative permittivity in series [1] of 2.0.

For the molecule `CCCCCCCCCC` [n-decane], the solubility at 4 h in series [2] is ≤ 1 µg/mL. Moreover, the relative permittivity in series [1] is recorded as 2.0.

With `CCCCc1ccc(N=Nc2cc(C#N)c(N=Nc3cc(OC)c(N(CC(CC)CCCC)CC(CC)CCCC)cc3NC(C)=O)s2)cc1` (stereo not shown) [Compound 3], the Absorption-maximum wavelength stood at 667 nm in series [3] (Isopar L); 668 nm in series [3] (Isopar M); 667 nm in series [3] (setting [5]); 667 nm in series [3] (n-decane); 669 nm in series [3] (tetradecane). Besides, the Color tone result in series [3] (Isopar L solution), in series [3] (Isopar M solution), in series [3] (setting [5]), in series [3] (n-decane solution) and in series [3] (tetradecane solution) was “blue” in each case. Further, the ε in series [3] (Isopar L, at absorption-maximum wavelength) came to 75000 L/mol/cm; in series [3] (Isopar M, at absorption-maximum wavelength), 72000 L/mol/cm; in series [3] (setting [5]), 75000 L/mol/cm; in series [3] (n-decane, at absorption-maximum wavelength), 73000 L/mol/cm; in series [3] (tetradecane, at absorption-maximum wavelength) it was 73000 L/mol/cm. For the same molecule, the “ε · C” value turned out to be 8200 cm⁻¹ in series [4] (Isopar L); 11100 cm⁻¹ in series [4] (Isopar M); 4700 cm⁻¹ in series [4] (setting [5]); 9900 cm⁻¹ in series [4] (n-decane); 10600 cm⁻¹ in series [4] (tetradecane). For the same molecule, the Solubility in series [4] (in Isopar L) worked out at 110 mM (≈ 77 mg/mL); in series [4] (in Isopar M) it was 150 mM (≈ 105 mg/mL); in series [4] (in mixed solvent of n-decane/Isopar L (mixing ratio 1/1)), 63 mM; in series [4] (in n-decane), 140 mM (≈ 98 mg/mL); in series [4] (in tetradecane), 150 mM (≈ 105 mg/mL).
